# Measurements reported in patent US11572344B2, “Cyanoaryl-aniline compounds for treatment of dermal disorders” (NFlection Therapeutics, Inc., priority 2018, dated 2023).
# Tested on: A375 cells
# Assay: A375 (BRAF) GI50 cell-based assay (Cell Titer-Glo)
# Settings: Homo sapiens, A-375, 72 hours, read-out: Assay 2: A375 (BRAF) GI50
# Description: (§1) Alternatively, the following procedure can be used to measure cell-based activity. Test compounds were dissolved in DMSO in 10 mM stock. Cell Titer-Glo® 2.0 Luminescent cell viability assay reagent was purchased from Promega (Madison, Wis.). A375 and HCT116 cell lines were purchased from American Type Culture Collection (Manassas, Va.). For A375 cells, cell culture media was DMEM+10% FBS. For HCT116 cells, cell culture media was McCoy's 5A+10% FBS. All media were supplemented with 100 μg/mL of penicillin, and 100 μg/mL of streptomycin. Cultures were maintained at 37° C. in a humidified atmosphere of 5% CO2 and 95% air.
# (§2) Test compounds were diluted in DMSO solution with 10-dose and 3-fold dilutions in a source plate starting at 10 mM. 25 nL of each test compound was delivered from the source plate to each well of the 384-well cell culture plates (T=Final) by Echo 550. 25 μL of culture medium containing 2000 of A375 or HCT116 cells was added to each of the wells in duplicates of the cell culture plates (T=0 and T=Final). 25 μL of Cell Titer Glo 2.0 reagent was added to each well of cell culture plate (T=0). The contents were mixed on an orbital shaker for 2 min and incubated at room temperature for 15 min to stabilize luminescent signal. Luminescence was recorded by Envision 2104 Multilabel Reader (PerkinElmer, Santa Clara, Calif.). The number of viable cells in culture was determined based on quantitation of the ATP present in each culture well. The cells in cell culture plate (T=Final) were incubated with the compounds at 37° C., 5% CO2 for 72 hours. 25 μL of Cell Titer Glo 2.0 reagent was added to each well. The contents were mixed on an orbital shaker for 2 min and incubated at room temperature for 15 min to stabilize luminescent signal. Luminescence was recorded by Envision 2104 Multilabel Reader (PerkinElmer, Santa Clara, Calif.). The number of viable cells in culture was determined based on quantitation of the ATP present in each culture well. The GI50 curves were plotted using the GraphPad Prism 4 program based on a sigmoidal dose-response equation Y=Bottom+(Top-Bottom)/(1+10^((Log EC50−X)*HillSlope)). All parameters in the equation were calculated by GraphPad Prism 4 program. […] Accordingly, GI50 is the value of 10^X, where X was calculated by the Curve Fitting Equation when Y=50 using Excel.
# Assay 2 is the A375 (BRAF) GI50 (nM) cell-based assay as described in Example 41.
row,GI50,SMILES
1,≤ 500 nM,"N#Cc1ccc(C(=O)NOCCO)c(Nc2ccc(I)cc2F)c1F [Compound 1.030, 4-cyano-3-fluoro-2-((2-fluoro-4-iodophenyl)amino)-N-(2-hydroxyethoxy) benzamide]"
2,≤ 500 nM,N#Cc1ccc(C(=O)NOCC2CC2)c(Nc2ccc(I)cc2F)c1F [Compound 1.031]
3,≤ 500 nM,N#Cc1ccc(C(=O)NOCCO)c(Nc2ccc(I)cc2F)c1 [Compound 1.010]

# Tested on: HCT116 cells
# Assay: HCT116 (Kras) GI50 cell-based assay (Cell Titer-Glo)
# Settings: Homo sapiens, HCT-116, 72 hours, read-out: Assay 3: HCT116 (Kras) GI50
# Description: as §1, §2
# Assay 3 is the HCT116 (Kras) GI50 (nM) assay as described in Example 41.
row,GI50,SMILES
1,≤ 750 nM,"N#Cc1ccc(C(=O)NOCCO)c(Nc2ccc(I)cc2F)c1F [Compound 1.030, 4-cyano-3-fluoro-2-((2-fluoro-4-iodophenyl)amino)-N-(2-hydroxyethoxy) benzamide]"
2,750 to 2000 nM,N#Cc1ccc(C(=O)NOCC2CC2)c(Nc2ccc(I)cc2F)c1F [Compound 1.031]
3,≤ 750 nM,N#Cc1ccc(C(=O)NOCCO)c(Nc2ccc(I)cc2F)c1 [Compound 1.010]

# Molecular target: MEK1 (Homo sapiens (Human), UniProt Q02750)
# Sequence (Q02750 whole entry): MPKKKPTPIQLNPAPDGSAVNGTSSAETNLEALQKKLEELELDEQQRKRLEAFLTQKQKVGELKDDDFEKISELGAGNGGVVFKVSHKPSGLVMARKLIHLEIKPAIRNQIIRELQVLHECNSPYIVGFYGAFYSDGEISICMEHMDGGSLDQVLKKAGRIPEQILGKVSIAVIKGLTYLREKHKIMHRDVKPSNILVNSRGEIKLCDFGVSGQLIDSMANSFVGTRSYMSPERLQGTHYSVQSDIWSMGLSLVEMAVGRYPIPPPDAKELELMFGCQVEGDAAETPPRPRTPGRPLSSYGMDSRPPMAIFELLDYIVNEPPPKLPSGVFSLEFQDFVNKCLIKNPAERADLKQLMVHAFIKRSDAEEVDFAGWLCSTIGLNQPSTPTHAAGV
# Assay: MEK Inhibition Assay-1 (33P-ATP, P81 filter-binding)
# Settings: assay of Example 38; read-out: Assay 1: biochemical MEK IC50
# Description: The following procedure can be used to measure biochemical activity. MEK1 inhibitory activity of compounds were tested using the following procedure. […] Nat Biotechnol. 2011, 29(11), 1039-45.
# • Reaction buffer: 20 mM Hepes (pH 7.5), 10 mM MgCl2, 1 mM EGTA, 0.02% Brij35, 0.02 mg/mL BSA, 0.1 mM Na3VO4, 2 mM DTT, 1% DMSO • Enzyme: MEK1, Invitrogen cat #PV3303 • N-terminal His-tagged recombinant human full length protein, expressed in insect cells. Activated in vitro by RAF1. MW=49.2 kDa, GenBank Accession No. NP_002746. • Substrate: 5 μM ERK2 (K52R), • Kinase-dead mutant, (GenBank Accession No. NM_0011949), aa2-358 with N-terminal His6 tag, MW=43.63 kDa, expressed in E. coli.
# The substrate was prepared in freshly prepared Reaction Buffer. The kinase was delivered into the substrate solution and gently mixed. Test compounds were delivered in 100% DMSO into the kinase reaction mixture by Acoustic technology (Echo550; nanolitter range), and incubated for 20 min at room temperature. ^33P-ATP was delivered into the reaction mixture to initiate the reaction. The reaction mixture was incubated for 2 hours at room temperature. Kinase activity was detected by P81 filter-binding method.
# Assay 1 is the biochemical MEK IC50 (nM) assay as described in Example 38.
row,IC50,SMILES
1,≤ 150 nM,"N#Cc1ccc(C(=O)NOCCO)c(Nc2ccc(I)cc2F)c1F [Compound 1.030, 4-cyano-3-fluoro-2-((2-fluoro-4-iodophenyl)amino)-N-(2-hydroxyethoxy) benzamide]"
2,≤ 150 nM,N#Cc1ccc(C(=O)NOCC2CC2)c(Nc2ccc(I)cc2F)c1F [Compound 1.031]
3,≤ 150 nM,N#Cc1ccc(C(=O)NOCCO)c(Nc2ccc(I)cc2F)c1 [Compound 1.010]
